Test results published in publication PMC6271893, “In Vitro Antioxidant and Cytotoxic Activity of Some Synthetic Riparin-Derived Compounds” (Molecules, 2014).
In brackets after ≈: the same amount, converted by molar mass. Marks after values point to notes of the source that are not given here.

Columns and labels:
[1] = test system: larynx carcinoma cell line HEP-2; parameters: method as in PMID 23569415; conditions: cited from earlier work
[2] = test system: tumor cells lines (leukemia and lung and laryngeal carcinoma); experiment: Cytotoxicity on tumor cell lines, summary statements over the lines (MTT); format: cell-based; conditions: Homo sapiens; for IC50: leukemia and lung and laryngeal carcinoma, read-out: IC50 values on neoplastic cells (range over cell lines); for inhibition at 25 µg/mL: tumor cells lines, cytotoxicity samples tested at 25 µg/mL, read-out: cell growth inhibition rates
Description: (§1) For the in vitro antioxidant tests the samples were emulsified in 0.05% Tween 80 dissolved in saline 0.9% (used as the vehicle) and tested at concentrations of 1, 5, 10, 25 and 100 µg/mL. The samples for the cytotoxicity tests were diluted in pure and sterile DMSO and tested at concentrations of 25 µg/mL.
(§2) Cells were maintained at 37 °C with 5% CO2 in RPMI 1640 (Himedia^TM, Mumbai, India) or DMEM medium (Gibco^TM, Grand Island, NY, USA) supplemented with 2 mM glutamine, 100 U/mL penicillin, 100 μg/mL streptomycin. The antiproliferative activities of riparins were evaluated in the following human cancer cells lineage: HL-60 (pro-myelocytic leukemia), NCIH-292 (lung carcinoma), and HEP-2 (laryngeal carcinoma) obtained from the Rio de Janeiro Cell Bank (RJ-Brazil). For all experiments, 100 µL of tumor cells were plated in 96-well plates (6 × 10^4 cells/cm^2 for adherent cells or 9 × 10^4 cells/cm^2 for leukemia). Tested compounds (0.1–25 μg/mL) dissolved in 1% DMSO (100 µL) were added to each well and incubated for 72 h. Control groups received the same amount of DMSO. After 69 h of treatment, 25 μL of MTT (5 mg/mL) were added. Three hours later, the MTT formazan product was dissolved in 100 μL of DMSO, and absorbance was measured at 595 nm using a multiplate reader (Thermo Plate®, TP Reader, São Paulo, SP, Brasil).

[3] = Antioxidant potential against the formation of TBARS (AAPH-induced lipid peroxidation of egg yolk homogenate); conditions: for IC50 TBARS: TBARS production
Description: as §1
The TBARS assay was employed to quantify lipid peroxidation and an adapted TBARS method was used to measure the antioxidant capacity of the riparins (Rip-A, -B, -C, -D, -E and -F) using egg yolk homogenate as lipid rich substrate. Egg yolk was homogenized (1% w/v) in 20 mM phosphate buffer (pH 7.4), 1 mL of homogenate was sonicated and then homogenized with 0.1 mL of the samples at concentrations of 1, 5, 10, 25 and 100 µg/mL. Lipid peroxidation was induced by the addition of 0.1 mL of 2,2'-azobis(2-methylpropionamidine) dihydrochloride solution (AAPH; 0.12 M). Control was evaluated with only the vehicle. Reactions were carried out for 15 minutes at 37 °C. After cooling, samples (0.5 mL) were centrifuged with 0.5 mL of trichloroacetic acid (15%) at 1,200 ×g for 10 min. An aliquot of 0.5 mL from supernatant was mixed with 0.5 mL TBA (0.67%) and heated at 95 °C for 30 min. After cooling, sample absorbance was measured using a spectrophotometer at 532 nm. The results were expressed as percentage of TBARS formed by AAPH alone (induced control).

[4] = test system: murine peritoneal macrophages RAW 264.7; experiment: Cytotoxicity assay on RAW 264.7 (LDH release); format: cell-based; conditions: 25 µg/mL, RAW 264.7
Description: Murine peritoneal macrophages of the cell line RAW 264.7 were obtained from the American Type Culture Collection (ATCC, Rockville, MD, USA), and cultured at 37 °C with CO2 at 5% in DMEM-F12 supplemented with 10% fetal bovine serum (FBS; Hyclone^TM, Logan, UT, USA) and gentamicin (50 μg/mL). RAW 264.7 cells (5 × 10^5 cells/mL) were cultured and incubated for 24 h with the riparins A, B, C, D, E and F at the final concentration of 25 µg/mL […]. The cytotoxicity assay was performed by LDH assay. The release of LDH (cytoplasmic lactate dehydrogenase enzyme) was determined using 50 μL of culture supernatant with 100 μL of LDH substrate plus and 5 μL ferric alum (5 mg/mL), at 37 °C for 3 min. Then, 100 μL of the NAD solution and phenazine methosulphate were added to the mixture, maintaining the temperature at 37 °C for 5 min (Labrax Commercial Kit, Clontech, Palo Alto, CA, USA). LDH is an oxidoreductase which catalyzes the interconversion of lactate and pyruvate and, for being a stable cytosolic enzyme, after damage to cell membrane it is released in the cellular environment and because of this LDH is an indirect indicator of cytotoxicity. LDH concentration was determined by colorimetry at 492 nm. The specific release of LDH was calculated as percentage of the controls (not treated cells as negative control and cells treated with 1%Triton X-100 as positive control).
(§3) The obtained data were evaluated by one-way analysis of variance (ANOVA) followed by a Student Newman Keuls post hoc test. The data concerning release percentage of cytoplasmatic enzyme lactate dehydrogenase (LDH) were reported by mean ± standard deviation and evaluated by one-way analysis of variance (ANOVA) followed by a Tukey post hoc test. In all cases differences were considered significant if p < 0.05, the means and respective standard errors were analyzed in the Graph Pad Prism version 5.0 for Windows software (GraphPad Software Incorporated, San Diego, CA, USA).

[5] = Scavenging activity of nitric oxide (nitrite production induced by SNP, Griess reaction); conditions: for IC50 Nitrite: nitrite formation
Description: as §1
Nitric oxide was generated from spontaneous decomposition of sodium nitroprusside in 20 mM phosphate buffer (pH 7.4). Once generated, NO interacts with oxygen to produce nitrite ions, which are measured by the Griess reaction. The reaction mixture (1 mL) containing 10 mM sodium nitroprusside (SNP) in phosphate buffer and the riparins at various concentrations of 1, 5, 10, 25 and 100 µg/mL were incubated at 37 °C for 1 h. A 0.5 mL aliquot was taken and homogenized with 0.5 mL Griess reagent. The absorbance of chromophore was measured at 540 nm. Percent inhibition of generated nitric oxide was measured by comparing the absorbance values of negative controls (only 10 mM sodium nitroprusside and vehicle) to assay preparations. Results were expressed as percentage of nitrite formed by SNP alone.

[6] = test system: HEP-2 (laryngeal carcinoma); experiment: Cytotoxicity against tumor cell lines (MTT); format: cell-based; conditions: Homo sapiens, 72 h, 95% confidence interval in brackets, read-out: IC50 values and confidence intervals, HEP-2
Description: as §2, §3

[7] = test system: HL-60 (pro-myelocytic leukemia); experiment: Cytotoxicity against tumor cell lines (MTT); format: cell-based; conditions: Homo sapiens, 72 h, 95% confidence interval in brackets, read-out: IC50 values and confidence intervals, HL-60
Description: as §2, §3

[8] = test system: NCIH-292 (lung carcinoma); experiment: Cytotoxicity against tumor cell lines (MTT); format: cell-based; conditions: Homo sapiens, NCI-H292, 72 h, 95% confidence interval in brackets, read-out: IC50 values and confidence intervals, NCIH-292
Description: as §2, §3

[9] = Hydroxyl radical scavenging activity (2-deoxyribose degradation, Fenton reaction); conditions: for IC50 OH radical: hydroxyl radical content
Description: as §1
The formation of OH radicals from Fenton reagents was quantified using the condensation product of the 2-deoxyribose oxidative degradation product, malonaldehyde, with 2-thiobarbituric acid (TBA). Briefly, typical reactions were started by the addition of Fe^2+ (FeSO4 6 mM final concentration) to solutions containing 5 mM 2-deoxyribose, 100 mM H2O2 and 20 mM phosphate buffer (pH 7.2). In order to determine the antioxidant activity of the riparins against the hydroxyl radical, individual tests were performed on each one of the six substances, in which different concentrations of the riparins were added to the system before Fe^2+ addition (Rip-A; Rip-B; Rip-C; Rip-D; Rip-E and Rip-F). Reactions were carried out for 15 min at room temperature and were quenched by the addition of phosphoric acid 4% (v/v), followed by TBA 1% (thiobarbituric acid, v/v in 50 μL NaOH). The solutions were boiled for 15 min to 95 °C and then cooled at room temperature. The absorbance was measured at 532 nm and the results were expressed as MDA equivalents formed by Fe^2+ and H2O2 [25].

Compound | IC50 on HEP-2 [1] | IC50 [2] | inhibition at 25 µg/mL [2] | TBARS levels (% AAPH) ([3]; 1 μg/mL) | TBARS levels (% AAPH) ([3]; 5 μg/mL) | TBARS levels (% AAPH) ([3]; 10 μg/mL) | TBARS levels (% AAPH) ([3]; 25 μg/mL) | TBARS levels (% AAPH) ([3]; 100 μg/mL) | IC50 TBARS [3] | LDH % Release [4] | Nitrite Production (% induced by SNP) ([5]; 1 μg/mL) | Nitrite Production (% induced by SNP) ([5]; 5 μg/mL) | Nitrite Production (% induced by SNP) ([5]; 10 μg/mL) | Nitrite Production (% induced by SNP) ([5]; 25 μg/mL) | Nitrite Production (% induced by SNP) ([5]; 100 μg/mL) | IC50 Nitrite [5] | melting point | IC50 [6] | IC50 [7] | IC50 [8] | other results
CC[C@H]1CC2CN3CCc4c([nH]c5ccc(OC)cc45)[C@](C(=O)OC)(C2)[C@H]13 (stereo in doubt) [voacangine] | 159.33 µg/mL (≈ 432 µM) |  |  |  |  |  |  |  |  |  |  |  |  |  |  |  |  |  |  |  | 
CC[C@H]1C[C@@H]2CN3CCc4c([nH]c5ccccc45)[C@](C(=O)OC)(C2)[C@H]13 [Coronaridine, coronaridine] | 54.47 µg/mL (≈ 161 µM) |  |  |  |  |  |  |  |  |  |  |  |  |  |  |  |  |  |  |  | 
COc1ccc(CCNC(=O)c2ccccc2O)cc1OC [Rip-D, 2-Hydroxy-N-[2-(3,4-methoxyphenyl)ethyl]benzamide] |  | 1.9 to 11.4 µg/mL (≈ 6.31 to 37.8 µM) | > 70% | 41.2 ± 0.96 ^a % | 39.4 ± 0.71 ^a % | 37.3 ± 0.68 ^a % | 34.4 ± 0.76 ^a % | 25.6 ± 0.66 ^a % | 0.9958 µg/mL (≈ 3.3 µM) | 83.12% | 72.6 ± 1.81 ^a % | 32.2 ± 1.45 ^a % | 28.9 ± 1.74 ^a % | 24.7 ± 1.77 ^a % | 17.3 ± 2.38 ^a % | 1.270 µg/mL (≈ 4.21 µM) | 96 °C | 7.3 µg/mL (≈ 24.2 µM) | 9 µg/mL (≈ 29.9 µM) | > 25 µg/mL | LDH % Release ([4]; listed as riparin D): greater than 80%; 2-Deoxyribose degradation (%) ([9]; 1 μg/mL): 93.5 ± 1.17 ^a %; 2-Deoxyribose degradation (%) ([9]; 5 μg/mL): 67.9 ± 1.74 ^a %; 2-Deoxyribose degradation (%) ([9]; 10 μg/mL): 56.9 ± 0.82 ^a %; 2-Deoxyribose degradation (%) ([9]; 25 μg/mL): 51.9 ± 1.27 ^a %; 2-Deoxyribose degradation (%) ([9]; 100 μg/mL): 47.3 ± 0.88 ^a %; IC50 OH radical [9]: 1.358 µg/mL (≈ 4.51 µM)
COc1ccc(CCNC(=O)c2c(O)cccc2O)cc1OC [Rip-F, N-[2-(3,4-Dimethoxyphenyl)ethyl]-2,6-dihydroxybenzamide] |  | 1.9 to 11.4 µg/mL (≈ 5.99 to 35.9 µM) | > 70% | 38.8 ± 0.99 ^a % | 35.9 ± 0.41 ^a % | 35.2 ± 0.44 ^a % | 34.6 ± 0.49 ^a % | 30.3 ± 0.47 ^a % | 0.6231 µg/mL (≈ 1.96 µM) | 91.01% | 74.9 ± 2.27 ^a % | 35.3 ± 0.96 ^a % | 21.5 ± 0.98 ^a % | 19.9 ± 0.71 ^a % | 17.3 ± 0.22 ^a % | 0.5817 µg/mL (≈ 1.83 µM) | 167 °C | 7.8 µg/mL (≈ 24.6 µM) | 11.4 µg/mL (≈ 35.9 µM) | 10.3 µg/mL (≈ 32.5 µM) | LDH % Release ([4]; listed as riparin F): greater than 80%; 2-Deoxyribose degradation (%) ([9]; 1 μg/mL): 83.3 ± 2.13 ^a %; 2-Deoxyribose degradation (%) ([9]; 5 μg/mL): 61.5 ± 0.98 ^a %; 2-Deoxyribose degradation (%) ([9]; 10 μg/mL): 57.6 ± 1.47 ^a %; 2-Deoxyribose degradation (%) ([9]; 25 μg/mL): 55.1 ± 1.78 ^a %; 2-Deoxyribose degradation (%) ([9]; 100 μg/mL): 50.9 ± 2.33 ^a %; IC50 OH radical [9]: 1.016 µg/mL (≈ 3.2 µM)
heyneanine | 689.45 µg/mL |  |  |  |  |  |  |  |  |  |  |  |  |  |  |  |  |  |  |  | 
